Reference: PubChem BioAssay (NCI)
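Here, GI50 denotes the concentration required for 50% inhibition of growth. TGI denotes the concentration required for complete inhibition of growth.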

What was measured:
Test in all cases: DTP human tumour cell line panel, 384-well format
[1] = test system: SK-OV-3 ovarian
[2] = test system: NCI/ADR-RES ovarian
[3] = test system: EKVX NSCLC
[4] = test system: CAKI-1 renal
[5] = test system: NCI-H23 lung
[6] = test system: HCT-116 colon
[7] = test system: MALME-3M melanoma
[8] = test system: HS 578T breast
[9] = test system: CCRF-CEM leukemia
[10] = test system: HL-60(TB) leukemia
[11] = test system: KM12 colon
[12] = test system: IGROV1 ovarian
[13] = test system: HOP-62 NSCLC
[14] = test system: SF-268 CNS
[15] = test system: 786-0 renal
[16] = test system: MDA-MB-435 melanoma
[17] = test system: UACC-62 melanoma
[18] = test system: OVCAR-8 ovarian
[19] = test system: NCI-H226 lung
[20] = test system: A549 NSCLC
[21] = test system: HCT-15 colon
[22] = test system: RPMI-8226 leukemia
[23] = test system: HCC-2998 colon
[24] = test system: HT29 colon
[25] = test system: PC-3 prostate
[26] = test system: SW-620 colon
[27] = test system: A498 renal
[28] = test system: NCI-H460 NSCLC
[29] = test system: RXF 393 renal
[30] = test system: SK-MEL-2 melanoma
[31] = test system: UO-31 renal
[32] = test system: MDA-MB-468 breast
[33] = test system: NCI-H322M lung
[34] = test system: OVCAR-4 ovarian
[35] = test system: SR leukemia
[36] = test system: DU-145 prostate
[37] = test system: ACHN renal
[38] = test system: SNB-75 CNS
[39] = test system: UACC-257 melanoma
[40] = test system: OVCAR-3 ovarian
[41] = test system: SK-MEL-28 melanoma
[42] = test system: BT-549 breast
[43] = test system: HOP-92 NSCLC
[44] = test system: SF-295 CNS
[45] = test system: SF-539 CNS
[46] = test system: MDA-MB-231 breast
[47] = test system: SNB-19 CNS
[48] = test system: LOX IMVI melanoma
[49] = test system: TK-10 renal
[50] = test system: U251 glioblastoma
[51] = test system: COLO 205 colon
[52] = test system: MOLT-4 leukemia
[53] = test system: SK-MEL-5 melanoma
[54] = test system: NCI-H522 lung
[55] = test system: K-562 leukemia
[56] = test system: SN12C renal
[57] = test system: M14 melanoma
[58] = test system: T-47D breast
[59] = test system: OVCAR-5 ovarian

**Q.** Which results are given for `CC(=O)c1ccc2c(c1)c1cc(C(C)=O)ccc1n2CCNC(C)C`?
**A.** GI50 [1]: 300 nM; TGI [1]: 1230 nM; GI50 [2]: 204 nM; TGI [2]: 472 nM; GI50 [3]: 409 nM; TGI [3]: 931 nM; GI50 [4]: 150 nM; TGI [4]: 317 nM; GI50 [5]: 193 nM; TGI [5]: 461 nM; GI50 [6]: 199 nM; TGI [6]: 731 nM; GI50 [7]: 172 nM; TGI [7]: 319 nM; GI50 [8]: 195 nM; TGI [8]: 376 nM; GI50 [9]: 148 nM; TGI [9]: 299 nM; GI50 [10]: 201 nM; TGI [10]: 349 nM; GI50 [11]: 286 nM; TGI [11]: 2270 nM; GI50 [12]: 480 nM; TGI [12]: 15100 nM; GI50 [13]: 201 nM; TGI [13]: 755 nM; GI50 [14]: 222 nM; TGI [14]: 618 nM; GI50 [15]: 228 nM; TGI [15]: 855 nM; GI50 [16]: 320 nM; TGI [16]: 922 nM; GI50 [17]: 170 nM; TGI [17]: 313 nM; GI50 [18]: 276 nM; TGI [18]: 1320 nM; GI50 [19]: 153 nM; TGI [19]: 308 nM; GI50 [20]: 189 nM; TGI [20]: 353 nM; GI50 [21]: 206 nM; TGI [21]: 464 nM; GI50 [22]: 164 nM; TGI [22]: 303 nM; GI50 [23]: 311 nM; TGI [23]: 811 nM; GI50 [24]: 206 nM; TGI [24]: 1030 nM; GI50 [25]: 279 nM; TGI [25]: 782 nM; GI50 [26]: 207 nM; TGI [26]: 736 nM; GI50 [27]: 182 nM; TGI [27]: 329 nM; GI50 [28]: 164 nM; TGI [28]: 316 nM; GI50 [29]: 170 nM; TGI [29]: 529 nM; GI50 [30]: 263 nM; TGI [30]: 478 nM; GI50 [31]: 168 nM; TGI [31]: 308 nM; GI50 [32]: 164 nM; TGI [32]: 306 nM; GI50 [33]: 234 nM; TGI [33]: 543 nM; GI50 [34]: 244 nM; TGI [34]: 637 nM; GI50 [35]: 33.8 nM; TGI [35]: 86.6 nM; GI50 [36]: 344 nM; TGI [36]: 1430 nM; GI50 [37]: 101 nM; TGI [37]: 245 nM; GI50 [38]: 264 nM; TGI [38]: 743 nM; GI50 [39]: 182 nM; TGI [39]: 351 nM; GI50 [40]: 273 nM; TGI [40]: 969 nM; GI50 [41]: 207 nM; TGI [41]: 435 nM; GI50 [42]: 348 nM; TGI [42]: 932 nM; GI50 [43]: 225 nM; TGI [43]: 656 nM; GI50 [44]: 309 nM; TGI [44]: 1170 nM; GI50 [45]: 228 nM; TGI [45]: 669 nM; GI50 [46]: 194 nM; TGI [46]: 446 nM; GI50 [47]: 279 nM; TGI [47]: 2650 nM; GI50 [48]: 192 nM; TGI [48]: 338 nM; GI50 [49]: 472 nM; TGI [49]: 11700 nM; GI50 [50]: 248 nM; TGI [50]: 715 nM; GI50 [51]: 164 nM; TGI [51]: 311 nM; GI50 [52]: 34.6 nM; TGI [52]: 101 nM; GI50 [53]: 178 nM; TGI [53]: 322 nM; GI50 [54]: 152 nM; TGI [54]: 307 nM; GI50 [55]: 178 nM; TGI [55]: 405 nM; GI50 [56]: 221 nM; TGI [56]: 728 nM; GI50 [57]: 259 nM; TGI [57]: 665 nM; GI50 [58]: 258 nM; TGI [58]: 619 nM; GI50 [59]: 433 nM; TGI [59]: 14300 nM
